Assay results published in PubChem BioAssay AID2060901 (Molecular Pharmacology Branch, DTP, NCI, 2025).

Tested on: 422866-222-R5-J1-PDC complex spheroids viability
Assay: Anticancer human tumor 422866-222-R5-J1-PDC patient-derived pancreatic adenocarcinoma cell line growth inhibition [RAS]
Details: for IC50: curve of first compound; for viability, T/C: stronger effect = lower value
Procedure, shortened: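 Agents were tested in combination matrices in half-log decrements from a top concentration at or near clinical Cmax (10 microM if undetermined). Targets were multi-cell spheroids of tumour lines plus HUVEC and MSC stromal cells.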
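Note: spheroids exposed to compounds for 7 days.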
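Throughout, for viability, T/C: 100% = DMSO vehicle control viability.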

How did the IC50 (second compound 0.000949 µM) turn out when `CCc1c2c(nc3ccc(O)cc13)-c1cc3c(c(=O)n1C2)COC(=O)[C@]3(O)CC` + CCn1c(-c2cc(N3CCN(C)CC3)cnc2C(C)OC)c2c3cc(ccc31)-c1csc(n1)CC(NC(=O)C1CC1C)C(=O)N1CCCC(N1)C(=O)OCC(C)(C)C2 was run?
The IC50 was < 0.949 nM.

What about the IC50 (second compound 0.003 µM) of the same molecule?
The IC50 was < 0.949 nM.

And the IC50 (second compound 0.00949 µM)?
The IC50 was < 0.949 nM.

And the IC50 (second compound 0.03 µM)?
The IC50 was < 0.949 nM.

What about the IC50 (second compound 0.0949 µM) of the same molecule?
The IC50 was < 0.949 nM.

And the IC50 (second compound 0.3 µM)?
Its IC50 is < 0.949 nM.

What about the viability, T/C (second compound 0.000949 µM, first compound 0.000949 µM) of the same molecule?
The viability, T/C was 25.3%.

And the viability, T/C (second compound 0.000949 µM, first compound 0.003 µM)?
The viability, T/C was 20.3%.

What about the viability, T/C (second compound 0.000949 µM, first compound 0.00949 µM) of the same molecule?
Its viability, T/C is 21.6%.

And the viability, T/C (second compound 0.000949 µM, first compound 0.03 µM)?
The viability, T/C was 19.5%.

What about the viability, T/C (second compound 0.000949 µM, first compound 0.0949 µM) of the same molecule?
The viability, T/C was 17.7%.

What about the viability, T/C (second compound 0.000949 µM, first compound 0.3 µM) of the same molecule?
The viability, T/C was 12.6%.

What about the viability, T/C (second compound 0.003 µM, first compound 0.000949 µM) of the same molecule?
Its viability, T/C is 22.5%.

And the viability, T/C (second compound 0.003 µM, first compound 0.003 µM)?
Its viability, T/C is 17%.

And the viability, T/C (second compound 0.003 µM, first compound 0.00949 µM)?
Its viability, T/C is 15.4%.

What about the viability, T/C (second compound 0.003 µM, first compound 0.03 µM) of the same molecule?
The viability, T/C was 16.7%.

And the viability, T/C (second compound 0.003 µM, first compound 0.0949 µM)?
Its viability, T/C is 14.1%.

What about the viability, T/C (second compound 0.003 µM, first compound 0.3 µM) of the same molecule?
The viability, T/C was 8.32%.

And the viability, T/C (second compound 0.00949 µM, first compound 0.000949 µM)?
Its viability, T/C is 18.9%.

And the viability, T/C (second compound 0.00949 µM, first compound 0.003 µM)?
Its viability, T/C is 14.7%.

What about the viability, T/C (second compound 0.00949 µM, first compound 0.00949 µM) of the same molecule?
Its viability, T/C is 13.8%.

What about the viability, T/C (second compound 0.00949 µM, first compound 0.03 µM) of the same molecule?
Its viability, T/C is 13.2%.

And the viability, T/C (second compound 0.00949 µM, first compound 0.0949 µM)?
The viability, T/C was 11.3%.

What about the viability, T/C (second compound 0.00949 µM, first compound 0.3 µM) of the same molecule?
The viability, T/C was 7.61%.

What about the viability, T/C (second compound 0.03 µM, first compound 0.000949 µM) of the same molecule?
Its viability, T/C is 16.6%.

What about the viability, T/C (second compound 0.03 µM, first compound 0.003 µM) of the same molecule?
The viability, T/C was 15.6%.

And the viability, T/C (second compound 0.03 µM, first compound 0.00949 µM)?
Its viability, T/C is 14.6%.

And the viability, T/C (second compound 0.03 µM, first compound 0.03 µM)?
The viability, T/C was 12.8%.

And the viability, T/C (second compound 0.03 µM, first compound 0.0949 µM)?
Its viability, T/C is 10%.

And the viability, T/C (second compound 0.03 µM, first compound 0.3 µM)?
The viability, T/C was 6.17%.

What about the viability, T/C (second compound 0.0949 µM, first compound 0.000949 µM) of the same molecule?
The viability, T/C was 17%.

What about the viability, T/C (second compound 0.0949 µM, first compound 0.003 µM) of the same molecule?
Its viability, T/C is 15%.

What about the viability, T/C (second compound 0.0949 µM, first compound 0.00949 µM) of the same molecule?
The viability, T/C was 13.8%.

And the viability, T/C (second compound 0.0949 µM, first compound 0.03 µM)?
Its viability, T/C is 12.5%.

And the viability, T/C (second compound 0.0949 µM, first compound 0.0949 µM)?
Its viability, T/C is 9.66%.

What about the viability, T/C (second compound 0.0949 µM, first compound 0.3 µM) of the same molecule?
The viability, T/C was 6.78%.

And the viability, T/C (second compound 0.3 µM, first compound 0.000949 µM)?
The viability, T/C was 16.2%.

And the viability, T/C (second compound 0.3 µM, first compound 0.003 µM)?
Its viability, T/C is 15.7%.

What about the viability, T/C (second compound 0.3 µM, first compound 0.00949 µM) of the same molecule?
The viability, T/C was 16.8%.

And the viability, T/C (second compound 0.3 µM, first compound 0.03 µM)?
Its viability, T/C is 12.8%.

And the viability, T/C (second compound 0.3 µM, first compound 0.0949 µM)?
The viability, T/C was 10.1%.

And the viability, T/C (second compound 0.3 µM, first compound 0.3 µM)?
The viability, T/C was 5.7%.
